# Reference: patent publication US11142515B2, “Pyrazolyl-ureas as kinase inhibitors” (RESPIVERT LIMITED, priority 2014, dated 2021)
# Columns and labels:
# d-U937 cells = test: Cell viability: MTT assay in differentiated U937 cells; format: cell-based, human; details: 10 μg/mL
# Description: Differentiated U937 cells were pre-incubated with each test compound (final concentration 10 μg/mL in 200 μL media indicated below) under two protocols: the first for 4 h in 5% FCS RPMI1640 media and the second in 10% FCS RPMI1640 media for 24 h. The supernatant was replaced with new media (200 μL) and MTT stock solution (10 μL, 5 mg/mL) was added to each well. After incubation for 1 h the media were removed, DMSO (200 μL) was added to each well and the plates were shaken lightly for 1 h prior to reading the absorbance at 550 nm. The percentage loss of cell viability was calculated for each well relative to vehicle (0.5% DMSO) treatment. Consequently an apparent increase in cell viability for drug treatment relative to vehicle is tabulated as a negative percentage.
# p38MAPKγ (MAPK12) = biological target: T1, p38MAPKγ (MAPK12) (Homo sapiens, UniProt P53778); test: p38 MAPKγ enzyme inhibition (Z-LYTE FRET); format: biochemical; details: Table 2B, unit inferred; read-out: p38 MAPKγ (Enzyme Profile)
# T1 construct: purchased Life Technologies
# T1 sequence (P53778 1-367): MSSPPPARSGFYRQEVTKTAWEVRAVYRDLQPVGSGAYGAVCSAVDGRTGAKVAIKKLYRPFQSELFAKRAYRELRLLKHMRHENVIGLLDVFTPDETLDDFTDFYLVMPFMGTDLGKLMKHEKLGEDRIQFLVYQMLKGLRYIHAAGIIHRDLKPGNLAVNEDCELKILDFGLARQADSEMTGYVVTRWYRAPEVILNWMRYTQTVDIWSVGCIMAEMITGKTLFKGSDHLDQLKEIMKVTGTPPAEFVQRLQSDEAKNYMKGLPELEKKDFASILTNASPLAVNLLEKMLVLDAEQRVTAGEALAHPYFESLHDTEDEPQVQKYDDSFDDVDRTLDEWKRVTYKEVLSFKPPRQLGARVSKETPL
# In short: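 Z-LYTE read-out: after 1 h protease development, only non-phosphorylated peptide is cleaved, and the donor/acceptor (coumarin/fluorescein) ratio reports phosphorylation. Beforehand, enzyme and compound (stock concentrations 0.0012–40 μg/mL) were preincubated 2 h at RT, then the kinase reaction ran 1 h at RT with peptide and ATP (8 μM and 400 μM stocks).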
# [1] = biological target: T2, p38 MAPKα isoform (MAPK14) (Homo sapiens, UniProt Q16539); test: p38 MAPKα enzyme inhibition (Z-LYTE FRET); format: biochemical; details: Table 2B, unit inferred; read-out: p38 MAPKα (Enzyme Profile)
# T2 construct: purchased Life Technologies
# T2 sequence (Q16539 whole entry, canonical isoform): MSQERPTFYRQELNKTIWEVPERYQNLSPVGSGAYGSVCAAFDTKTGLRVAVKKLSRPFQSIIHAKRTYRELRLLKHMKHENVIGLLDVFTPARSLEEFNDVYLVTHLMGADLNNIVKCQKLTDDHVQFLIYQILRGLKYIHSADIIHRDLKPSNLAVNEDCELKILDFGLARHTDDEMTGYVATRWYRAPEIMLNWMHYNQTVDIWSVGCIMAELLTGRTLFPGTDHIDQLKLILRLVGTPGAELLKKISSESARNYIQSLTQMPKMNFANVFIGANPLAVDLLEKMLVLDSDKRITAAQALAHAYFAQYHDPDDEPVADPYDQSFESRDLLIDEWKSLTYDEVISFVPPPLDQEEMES
# In short: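 Recombinant human MAPK14 (40 ng/mL stock) was preincubated 2 h at RT with compound (stock dilutions 0.0012-40 μg/mL). The Z-LYTE FRET read-out used a MAPKAP-K2-derived peptide, and protease development for 1 h cleaved only non-phosphorylated peptide. Phosphorylation was calculated from the coumarin/fluorescein emission ratio.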
IC50 (p38MAPKγ (MAPK12)) [µM],IC50 [1] [µM],Compound,"MTT Assay Cell viability at time point indicated in d-U937 Cells, 4 h (d-U937 cells; 4 h)","MTT Assay Cell viability at time point indicated in d-U937 Cells, 24 h (d-U937 cells; 24 h)"
,,"COCC(=O)Nc1cc(Oc2ccc(NC(=O)Nc3cc(C(C)(C)C)nn3-c3ccc(C)cc3)c3ccccc23)ccn1 [Reference Compound, N-(4-(4-(3-(3-tert-butyl-1-p-tolyl-1H-pyrazol-5-yl)ureido)naphthalen-1-yloxy)pyridin-2-yl)-2-methoxyacetamide, reference compound]","− (−ve and +ve indicate the value is below and above, respectively, the no significant effect threshold defined as 30% inhibition at 10 μg/mL at the time point indicated)","+ (−ve and +ve indicate the value is below and above, respectively, the no significant effect threshold defined as 30% inhibition at 10 μg/mL at the time point indicated)"
0.061,0.007,"Cc1ccc(-n2nc(C(C)(C)C)cc2NC(=O)Nc2ccc(OCc3ccnc(Nc4cnc(C(=O)N5C[C@H](O)[C@@H](O)C5)cn4)c3)c3ccccc23)cc1 [Example 247, 1-(3-(tert-butyl)-1-(p-tolyl)-1H-pyrazol-5-yl)-3-(4-((2-((5-((3S,4S)-3,4-dihydroxy-pyrrolidine-1-carbonyl)pyrazin-2-yl)amino)pyridin-4-yl)methoxy)naphthalen-1-yl)urea]",,
5.73,0.027,"COCC(=O)Nc1cncc(Nc2cc(COc3ccc(NC(=O)Nc4cc(C(C)(C)C)nn4-c4ccc(C)cc4)c4ccccc34)ccn2)n1 [Example 107, N-(6-((4-(((4-(3-(3-(tert-butyl)-1-(p-tolyl)-1H-pyrazol-5-yl)ureido)naphthalen-1-yl)oxy)methyl)pyridin-2-yl)amino)pyrazin-2-yl)-2-methoxyacetamide]",,
0.047,< 0.00039,"Cc1ccc(-n2nc(C(C)(C)C)cc2NC(=O)Nc2ccc(OCc3ccnc(Nc4cnc(C(=O)NCCN5CCN(C)CC5)cn4)c3)c3ccccc23)cc1 [Example 260, 5-((4-(((4-(3-(3-(tert-butyl)-1-(p-tolyl)-1H-pyrazol-5-yl)ureido)naphthalen-1-yl)oxy)methyl)pyridin-2-yl)amino)-N-(2-(4-methylpiperazin-1-yl)ethyl)pyrazine-2-carboxamide]",,
0.725,0.0075,"CN(C)c1cncc(Nc2cc(COc3ccc(NC(=O)Nc4cc(C(C)(C)C)nn4-c4ccc(O)cc4)c4ccccc34)ccn2)n1 [Example 115, 1-(3-(tert-butyl)-1-(4-hydroxyphenyl)-1H-pyrazol-5-yl)-3-(4-((2-((6-(dimethyl-amino)pyrazin-2-yl)amino)pyridin-4-yl)methoxy)naphthalen-1-yl)urea]",,
0.389,0.019,"COC1CN(C(=O)c2cnc(Nc3cc(COc4ccc(NC(=O)Nc5cc(C(C)(C)C)nn5-c5ccc(C)cc5)c5ccccc45)ccn3)cn2)C1 [Example 163, 1-(3-(tert-butyl)-1-(p-tolyl)-1H-pyrazol-5-yl)-3-(4-((2-((5-(3-methoxyazetidine-1-carbonyl)pyrazin-2-yl)amino)pyridin-4-yl)methoxy)naphthalen-1-yl) urea]",,
0.138,< 0.0004,"COCc1cccc(-n2nc(C(C)(C)C)cc2NC(=O)Nc2ccc(OCc3ccnc(Nc4cnc(C(=O)N5CCN(C)CC5)cn4)c3)c3ccccc23)c1 [Example 269, 1-(3-(tert-butyl)-1-(3-(methoxymethyl)phenyl)-1H-pyrazol-5-yl)-3-(4-((2-((5-(4-methylpiperazine-1-carbonyl)pyrazin-2-yl)amino)pyridin-4-yl)methoxy)naphthalen-1-yl)urea]",,
0.095,0.015,"Cc1cccc(-n2nc(C(C)(C)C)cc2NC(=O)Nc2ccc(OCc3ccnc(Nc4cnc(C(=O)NCCCO)cn4)c3)c3ccccc23)c1 [Example 231, 5-((4-(((4-(3-(3-(tert-butyl)-1-(m-tolyl)-1H-pyrazol-5-yl)ureido)naphthalen-1-yl)oxy)methyl)pyridin-2-yl)amino)-N-(3-hydroxypropyl) pyrazine-2-carboxamide]",,
> 15.3,0.029,"Cc1ccc(-n2nc(C(C)(C)C)cc2NC(=O)Nc2ccc(OCc3ccnc(Nc4cnc5c(n4)CCCC5)c3)c3ccccc23)cc1 [Example 138, 1-(3-(tert-butyl)-1-(p-tolyl)-1H-pyrazol-5-yl)-3-(4-((2-((5,6,7,8-tetrahydro-quinoxalin-2-yl)amino)pyridin-4-yl)methoxy)naphthalen-1-yl)urea]",,
0.171,0.06,"Cc1ccc(-n2nc(C(C)(C)C)cc2NC(=O)Nc2ccc(OCc3ccnc(Nc4cncc(N5CC(O)C5)n4)c3)c3ccccc23)cc1 [Example 123, 1-(3-(tert-butyl)-1-(p-tolyl)-1H-pyrazol-5-yl)-3-(4-((2-((6-(3-hydroxyazetidin-1-yl)pyrazin-2-yl)amino)pyridin-4-yl)methoxy)naphthalen-1-yl)urea]",,
0.032,0.0056,Cc1cccc(-n2nc(C(C)(C)C)cc2NC(=O)Nc2ccc(OCc3ccnc(Nc4cnc(CO)cn4)c3)c3ccccc23)c1 [Example 61],,
